In general, melting point refers to the temperature of the solid-liquid transition. For the compound `CCCCc1cn(-c2c(Cl)cccc2Cl)c(=O)n1Cc1ccc(-c2ccccc2-c2nnn[nH]2)nc1`, the melting point was 212 °C. `CN1C(=O)C(C)(C)C(=O)Nc2ccc(C#N)cc21` gave a melting point of 250 to 251 °C.

`O=C(Nc1ccc([N+](=O)[O-])cc1)C(=O)N1CCC(Cc2ccccc2)CC1` showed a melting point of 162 to 165 °C. Consider `CC(O)c1nccc(=O)[nH]1` (centres undefined), for which the melting point is 121 to 124 °C. With `Nc1ccc(C(=O)N2CCCCc3sc(Cl)cc32)cc1`, the melting point was in the range of 146 to 149 °C.

Compound `Nc1c(-c2cc(Cl)ccc2O)nnn1-c1ccc(C(F)(F)F)cc1Cl` registered a melting point of 74.5 to 77.5 °C. Consider `CCOC(=O)C(C)(Sc1nc2ccc(OCC)cc2s1)c1ccccc1` (centres undefined), for which the melting point was 92 to 94 °C. In turn, `CC(C)(C(=O)O)c1ccc(C(O)CCCN2CCC(=C3c4ccccc4CCc4ccccc43)CC2)cc1` (centres undefined) registered a melting point of 135 to 137 °C. In turn, `Cc1cc(C=O)c(Cl)nc1C` came in with a melting point of 69 to 70 °C.

In the case of `CCOC(=O)CCc1cccc2c1NC(=O)CC2`, the melting point is 102 to 103 °C.

`C=CCNC(=O)[C@H]1N(C(=O)OC(C)(C)C)CSC1(C)C` gave a melting point of 94 to 98 °C. `O=C(NCc1ccccn1)c1cc(-n2cnn(Cc3ccc(F)cc3)c2=O)n[nH]1`: the melting point lay within 224 to 225 °C. On to `Cn1c2ccccc2c(=O)c2c(-c3cccc(O)c3)c(Cl)cc(Cl)c21`, for which the melting point lay in the range of 220 to 222 °C. For the compound `COC(=O)c1cc(-c2c(OC)cccc2OC)n(-c2ccc(NS(=O)(=O)c3ccc(C)cc3)cc2C2CCCC2)n1`, the melting point fell in the range of 200 to 230 °C. `Cn1ncc2c(c1=O)SCCNC2C(=O)c1ccc([N+](=O)[O-])cc1` (centres undefined) returned a melting point of 230 to 232 °C.

In turn, `CC(C)(C)C(=O)Oc1cc2c(c3ccccc13)Nc1ccccc1S2` had a melting point of 142 °C. Then `COC(=O)COc1ccc2cc(CNC(=O)c3cc(-c4ccc(Cl)cc4)oc3C(F)(F)F)ccc2c1`, with 182 to 183 °C; and `COc1ccc2cc(-c3cc4c(cc3[N+](=O)[O-])OCO4)ccc2c1`, with 165 to 167 °C; and `CCC1(C)NC(=O)C(c2c(C)cc(C)cc2C)C1=O` (centres undefined), with 137 to 142 °C. The compound `CCOC(=O)Nc1ccc(CN2OCC(C)(C)C2=O)c(Cl)c1` gave a melting point of 162 to 164 °C. Under `COc1cc(C)nc2c(OCc3c(Cl)ccc(N)c3Cl)cccc12` stands over 250 °C. Under `CC(=O)Oc1ccc2c(c1)CCC1C3CCC(=O)C3(C)CC(O)C21O` (centres undefined) stands 199 to 201 °C; under `CC1CNc2ccc(NC3=NCCN3)c(Br)c2N1` (centres undefined), 250 to 251 °C; under `O=C(O)CN(CC(=O)O)CC(c1ccc([N+](=O)[O-])cc1)N(CC(=O)O)CC(=O)O` (centres undefined), 171 to 174 °C. Under `O=C(O)CCCOc1ccc(C23CC4CC(CC(C4)C2)C3)cc1Cl` stands 164 to 166 °C.

The compound `COc1ccc(NC(=O)Cn2c3c(c4cc(Cl)c(Cl)cc42)CCN(C(=O)OC(C)(C)C)CC3)cc1` registered a melting point of 151 to 152 °C. The compound `CC(C)(C)OC(=O)N[C@H]1CC[C@H](CCN2CCCC2)CC1` had a melting point of 110 °C. `N#Cc1cnc2c(cc([N+](=O)[O-])c3nncc32)c(-c2ccccc2Cl)n1` gave a melting point of 193 to 196 °C. On to `Cc1csc(=Nc2ccccc2C)s1`, for which the melting point is 65.5 to 69 °C. On to `COC(=O)CC1COc2cc(OCc3csc(-c4ccccc4)n3)ccc21` (centres undefined), for which the melting point fell in the range of 116 to 117 °C.

Compound `C=CCc1c(Cl)cc2c(c1O)OC(COS(=O)(=O)c1ccc(C)cc1)C2` (centres undefined) registered a melting point of 128 to 131 °C. In turn, `CCOC(=O)c1cc(-c2ccc(Cl)cc2)cnc1C(F)(F)F` returned a melting point of 84 to 85 °C. `COc1ccc2c3c1OC1C(=O)C(C)(C)C(C)C4C(C2)N(C)CCC314` (centres undefined) yielded a melting point of 246 to 248 °C. Compound `Cc1nc2c(Cl)c(NC(=O)c3cc(Cl)ccc3Cl)ccc2s1` yielded a melting point of 175 °C.

Values taken from a melting point compilation (Tetko et al.; mined from patent text by program, amines drawn as free bases though some values may be those of a salt).
